Experimental data published in ChEMBL document CHEMBL1122707, “Pyrroloisoquinoline antidepressants. Potent, enantioselective inhibition of tetrabenazine-induced ptosis and neuronal uptake of norepinephrine, dopamine, and serotonin” (J Med Chem, 1984).

What was measured:
Mus musculus [1] = assay: Inhibition of tetrabenazine (TBZ)-induced ptosis in mice (administered ip); type: functional
[2] = biological target: Sodium-dependent dopamine transporter (Rattus norvegicus, UniProt P23977); assay: Inhibition of dopamine (DA) uptake into rat brain synaptosomes; type: functional, subcellular
Sodium-dependent dopamine transporter, sequence (P23977 whole entry): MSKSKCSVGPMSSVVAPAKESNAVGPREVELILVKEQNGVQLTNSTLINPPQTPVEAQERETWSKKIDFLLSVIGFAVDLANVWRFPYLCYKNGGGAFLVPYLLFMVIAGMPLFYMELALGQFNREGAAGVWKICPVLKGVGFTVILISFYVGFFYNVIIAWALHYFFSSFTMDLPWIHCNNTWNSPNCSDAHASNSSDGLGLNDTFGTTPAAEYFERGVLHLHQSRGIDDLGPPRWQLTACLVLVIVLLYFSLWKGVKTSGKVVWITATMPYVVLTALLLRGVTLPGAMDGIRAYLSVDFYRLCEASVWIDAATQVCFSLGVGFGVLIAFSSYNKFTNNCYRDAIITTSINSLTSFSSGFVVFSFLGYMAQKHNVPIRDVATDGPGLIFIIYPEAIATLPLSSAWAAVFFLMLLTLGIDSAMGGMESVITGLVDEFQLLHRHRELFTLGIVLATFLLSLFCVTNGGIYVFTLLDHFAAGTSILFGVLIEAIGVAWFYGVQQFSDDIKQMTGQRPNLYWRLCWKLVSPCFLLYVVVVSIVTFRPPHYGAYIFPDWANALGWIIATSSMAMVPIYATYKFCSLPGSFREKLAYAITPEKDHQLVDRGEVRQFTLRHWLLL

Mus musculus [3] = assay: Inhibition of tetrabenazine (TBZ)-induced depression of motor activity (MA) in mice (administered ip); type: functional
[4] = biological target: Norepinephrine transporter (Rattus norvegicus, UniProt Q9WTR4); assay: Inhibition of norepinephrine (NE) into rat brain synaptosomes; type: functional, subcellular
Norepinephrine transporter, sequence (Q9WTR4 whole entry): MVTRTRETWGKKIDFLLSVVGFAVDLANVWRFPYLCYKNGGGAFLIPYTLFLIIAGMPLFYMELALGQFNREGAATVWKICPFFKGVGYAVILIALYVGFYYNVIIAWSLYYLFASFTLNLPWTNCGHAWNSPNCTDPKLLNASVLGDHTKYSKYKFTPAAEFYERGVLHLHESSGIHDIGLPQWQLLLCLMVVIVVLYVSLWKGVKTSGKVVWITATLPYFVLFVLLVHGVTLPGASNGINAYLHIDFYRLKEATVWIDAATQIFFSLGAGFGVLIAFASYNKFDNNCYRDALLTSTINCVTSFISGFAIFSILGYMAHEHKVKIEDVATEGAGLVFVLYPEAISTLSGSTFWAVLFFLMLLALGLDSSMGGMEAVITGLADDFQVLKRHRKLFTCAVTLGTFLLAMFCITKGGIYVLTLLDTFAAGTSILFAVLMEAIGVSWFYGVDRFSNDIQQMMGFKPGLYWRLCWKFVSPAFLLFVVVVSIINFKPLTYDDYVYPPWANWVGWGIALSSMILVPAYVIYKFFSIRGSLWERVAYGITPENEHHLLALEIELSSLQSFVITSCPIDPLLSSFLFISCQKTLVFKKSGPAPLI

Mus musculus [5] = assay: Compound was evaluated for the inhibition of tetrabenazine (TBZ)-induced depression of motor activity (MA) in mice (administered sc); type: functional
Mus musculus [6] = assay: Compound was evaluated for the inhibition of tetrabenazine (TBZ)-induced ptosis in mice (administered sc); type: functional
[7] = biological target: Sodium-dependent serotonin transporter (Rattus norvegicus, UniProt P31652); assay: Inhibition of serotonin (5-HT) uptake into rat brain synaptosomes; type: subcellular
Sodium-dependent serotonin transporter, sequence (P31652 whole entry): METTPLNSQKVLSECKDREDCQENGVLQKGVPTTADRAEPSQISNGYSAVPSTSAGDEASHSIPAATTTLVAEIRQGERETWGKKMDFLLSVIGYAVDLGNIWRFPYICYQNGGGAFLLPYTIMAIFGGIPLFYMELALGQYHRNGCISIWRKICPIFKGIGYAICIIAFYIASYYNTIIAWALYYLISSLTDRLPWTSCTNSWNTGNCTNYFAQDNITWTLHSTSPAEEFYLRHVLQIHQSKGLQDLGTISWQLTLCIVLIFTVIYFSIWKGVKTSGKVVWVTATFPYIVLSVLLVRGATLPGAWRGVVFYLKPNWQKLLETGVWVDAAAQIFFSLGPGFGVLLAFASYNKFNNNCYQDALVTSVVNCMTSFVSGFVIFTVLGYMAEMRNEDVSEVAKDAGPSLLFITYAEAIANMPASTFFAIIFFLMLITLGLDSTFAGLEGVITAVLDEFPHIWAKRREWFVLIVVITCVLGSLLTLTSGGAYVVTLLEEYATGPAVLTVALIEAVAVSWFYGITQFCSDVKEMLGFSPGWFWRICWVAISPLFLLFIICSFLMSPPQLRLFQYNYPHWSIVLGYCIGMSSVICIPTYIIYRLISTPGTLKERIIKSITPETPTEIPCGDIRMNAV

[8] = Mus musculus, ip, read-out: ED50

Row | SMILES | ED50 (Mus musculus [1]; [8]) [mg/kg] | Ki [2] [nM] | ED50 (Mus musculus [3]) [mg/kg] | Ki [4] [nM] | ED50 (Mus musculus [1]) [mg/kg] | ED50 (Mus musculus [5]) [mg/kg] | ED50 (Mus musculus [6]) [mg/kg] | Ki [7] [nM]
1 | CSc1ccc([C@@H]2CN3CCC[C@H]3c3ccccc32)cc1 | 0.4 | 36.8 | > 30 |  |  |  |  | 
2 | CN(C)CCCN1c2ccccc2CCc2ccccc21.Cl [IMIPRAMINE HYDROCHLORIDE] | 0.98 |  | 0.58 |  |  |  |  | 
3 | Br.Oc1ccc(C2CN3CCC[C@H]3c3ccccc32)cc1O (stereo not given in full) | 0.11 | 10.1 | 0.19 | 0.81 |  |  |  | 
4 | Clc1ccc(C2CN3CCC[C@H]3c3ccccc32)cc1Cl (stereo not given in full) | 0.14 | 0.99 | 0.39 | 0.68 |  |  |  | 
5 | CN1CCN2c3ccccc3Cc3ccccc3C2C1 (stereo not given) [MIANSERIN] | 9.7 | > 10000 | > 30 | 26 |  |  |  | 
6 | Cl.c1ccc([C@H]2CN3CCC[C@H]3c3ccccc32)cc1 (stereo in doubt; (-)-5b) |  | 1340 | > 30 |  | 8.3 |  |  | 
7 | Br.COc1ccc(C2CN3CCC[C@H]3c3ccccc32)cc1OC (stereo not given in full) | 0.11 | 71.9 | 0.45 | 3.4 |  |  |  | 
8 | c1ccc(C2CN3CCCCC3c3ccccc32)cc1 (stereo not given) | > 30 | > 500 | > 30 | 20 |  |  |  | 
9 | CN1Cc2c(N)cccc2C(c2ccccc2)C1 (stereo not given) [NOMIFENSINE] |  |  |  | 3.8 |  |  |  | 
10 | Br.Oc1ccc(C2CN3CCC[C@H]3c3ccccc32)cc1 (stereo not given in full) | 0.09 | 5.1 | 0.4 | 0.74 |  |  |  | 
11 | Cl.c1ccc(C2CN3CCC[C@H]3c3ccccc32)cc1 (single isomer, unassigned; (+)) | 0.05 | 4.4 | 0.59 |  |  |  |  | 
12 | CNCCCN1c2ccccc2CCc2ccccc21.Cl [DESIPRAMINE HYDROCHLORIDE] |  |  |  |  |  | 0.07 | 0.05 | 
13 | Br.COc1ccc(C2CN3CCC[C@H]3c3ccccc32)cc1 (stereo not given in full) | 0.03 | 5.2 | 0.27 | 0.79 |  |  |  | 
14 | c1ccc([C@H]2CN3CCC[C@H]3c3ccccc32)cc1 | 0.07 |  | 0.34 |  |  |  |  | 
15 | COc1ccc2c(c1)CN(C)CC2c1ccc(Cl)c(Cl)c1 (stereo not given) [DICLOFENSINE] |  | 14.6 |  | 4.4 |  |  |  | 
16 | Br.Nc1ccc([C@@H]2CN3CCC[C@H]3c3ccccc32)cc1 | 0.4 | 30 | 1.4 | 10 |  |  |  | 
17 | Cl.c1ccc([C@H]2CN3CCC[C@H]3c3ccccc32)cc1 (stereo in doubt; 5a) |  | 160 |  |  | >30 |  |  | 
18 | Cl.FC(F)(F)c1cccc([C@@H]2CN3CCC[C@H]3c3ccccc32)c1 | > 60 | > 1000 | > 60 | > 100 |  |  |  | 
19 | Cl.FC(F)(F)c1cccc([C@H]2CN3CCC[C@H]3c3ccccc32)c1 | 0.43 | 54.3 | 1.2 | 0.95 |  |  |  | 
20 | Br.Nc1ccc([C@H]2CN3CCC[C@H]3c3ccccc32)cc1 | 0.02 | 0.86 | > 1 | 0.2 |  |  |  | 
21 | Br.O=[N+]([O-])c1ccc(C2CN3CCC[C@H]3c3ccccc32)cc1 (stereo not given in full) | 0.14 | 94.2 | 0.34 | 3.4 |  |  |  | 
22 | Br.Clc1ccc(C2CN3CCC[C@H]3c3ccccc32)cc1 (stereo not given in full) | 0.34 |  | 0.55 |  |  |  |  | 
23 | Br.c1ccc(C2CN3CCCCCC3c3ccccc32)cc1 (stereo not given) | > 30 | > 100 | 30 | 100 |  |  |  | > 5000
